Data on one compound can be found in patent US6653311B1, “5-lipoxygenase inhibitors: (2-azinylamino) quinone derivatives” (Board of Supervisors of Louisiana State University, priority 2002, dated 2003).

Structures are written as SMILES.

For one series, the target named is T1, 5-lipoxygenase (5-LO) (Oryctolagus cuniculus, UniProt G1SNX0).
T1 construct: Polymorphonuclear leukocytes (PMNLs) were purified from rabbits by glycogen-intraperitoneal elicited intraperitoneal recruitment; endogenous in cells; host or cells: rabbit peritoneal polymorphonuclear leukocytes (PMNL), glycogen-elicited
T1 sequence (G1SNX0 1-674): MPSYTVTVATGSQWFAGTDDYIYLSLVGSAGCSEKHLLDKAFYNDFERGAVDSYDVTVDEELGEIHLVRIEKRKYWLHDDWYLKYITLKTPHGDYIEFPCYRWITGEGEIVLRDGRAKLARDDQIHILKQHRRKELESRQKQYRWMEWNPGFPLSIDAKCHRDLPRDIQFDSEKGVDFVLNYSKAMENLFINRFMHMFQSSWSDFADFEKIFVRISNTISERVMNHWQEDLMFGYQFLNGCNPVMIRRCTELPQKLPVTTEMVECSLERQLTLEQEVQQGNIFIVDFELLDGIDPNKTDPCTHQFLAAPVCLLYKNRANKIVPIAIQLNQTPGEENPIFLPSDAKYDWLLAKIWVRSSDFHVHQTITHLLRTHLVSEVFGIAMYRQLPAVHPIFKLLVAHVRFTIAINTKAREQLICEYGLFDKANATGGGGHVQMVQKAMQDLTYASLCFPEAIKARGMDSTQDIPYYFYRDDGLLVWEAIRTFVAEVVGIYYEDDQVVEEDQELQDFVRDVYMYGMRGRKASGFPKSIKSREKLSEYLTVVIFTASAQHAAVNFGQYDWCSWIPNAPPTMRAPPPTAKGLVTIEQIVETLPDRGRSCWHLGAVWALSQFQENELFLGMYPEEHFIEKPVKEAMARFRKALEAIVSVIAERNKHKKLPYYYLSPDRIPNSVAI
As to the kind of experiment: Radioisotopic assay of 5-LO activity (LTB4 formation from 14C-arachidonic acid) in rabbit peritoneal PMNL stimulated with A-23187. Format: cell-based. The source says:
The 5-LO enzyme, which is found primarily in cells of myeloid origin such as polymorphonuclear leukocytes (“PMNL”), eosinophils, and macrophages, catalyzes the first step of the biochemical pathway in which arachadonic acid (“AA”) is,converted into LTA4. […] To test the inhibition of the quinone derivatives on the activity of 5-LO rabbit polymorphonuclear leucocytes (PMNLs) were used.
Polymorphonuclear leukocytes (PMNLs) were purified from rabbits by glycogen-intraperitoneal elicited intraperitoneal recruitment, as descrited in T. Yatabe et al., “Studies on 5-lipoxygenase inhibitors: I. Synthesis and 5-lipoxygenase inhibitory activity of novel hydroxanic acid derivatives,” chem. Pharm. Bull., vol. 46, pp. 966-972 (1998). An intraperitoneal injection of 300 mL of 0.1% (w/v) glycogen in sterile saline was administered 6 h before the rabbits were sacrificed by an intravascular injection of Nembutal. Peritoneal exudates were collected in 5 μM EGTA, and residual red cells were removed by lysis in ammonium chloride. These cell preparations were obtained with greater than 96% purity, as assessed by Wright-Giemsa staining and greater than 95% viability as assessed by Trypan blue exclusion.
PMNL cells in suspension were pre-incubated for 20 min at room temperature with ^14C-labeled arachadonic acid (AA) and diluted to 3000 cells μL^−1. Thereafter, the calcium ionophore A-23187 (1 μg/mL) was added to stimulate LTB4 production, and the cells further incubated for 15 min under stirring at 37° C. After incubation, the aqueous samples were successively shaken with a mixture of chloroform/methanol/formic acid (12:12:1) for 30 sec and then with chloroform for 10 sec. Organic phases containing LTB4, 5-HPETE (5-hydroperoxyeicosatetraenoic acid), diHPETEs (dihydroperoxyeicosatetraenoic acids), and prostaglandins (PGs) were pooled, evaporated to dryness under nitrogen and dissolved into a small amount of chloroform-MeOH (1:1). Separation of the 5-LO metabolites was performed by thin layer chromatography (TLC) on silica gel G plates developed in diethyl ether-hexane-acetic acid (60:40:1, v/v/v).
Bands containing 5-lipoxygenase (5-LO) metabolites were scraped from the TLC plates, and ^14C levels were quantitatively measured by liquid scintillation. 5-LO activity was an obtained from the amount of ^14C-arachidonic acid converted into LTB4 after the prelabeled PMNL cells were stimulated to produce LTB4 by the calcium ionophore as described above. IC50 was calculated as the concentration of the 5-LO antagonist that produced 50% inhibition of the metabolite conversion.
[…] IC50 values, calculated as theconcentration of test compound required to cause 50% inhibition of LTB4 formation, were also determined for some representative examples. […] These compounds, in general, correspond to compounds bearing the more lipophilic quinone fragments. […] See S. Ohkawa et al., “Dual Inhibition of Thromboxane A2 Synthetase and 5-Lipoxygenase with Scavenging Activity of Active Oxygen Species. Synthesis of a Novel Series of (3-Pyridylmethyl)benzoquinone Derivatives,” J. Med. Chem., vol. 34, pp. 267-276 (1991).

Another series has as its target COX-1 (Homo sapiens, UniProt P23219). Kind of series: In vitro inhibition of COX-1 activity. Conditions: read-out: COX-1 percent inhibition.
For a further series, the target named is T2, 5-LO (Rattus norvegicus, UniProt P12527).
T2 sequence (P12527 1-673): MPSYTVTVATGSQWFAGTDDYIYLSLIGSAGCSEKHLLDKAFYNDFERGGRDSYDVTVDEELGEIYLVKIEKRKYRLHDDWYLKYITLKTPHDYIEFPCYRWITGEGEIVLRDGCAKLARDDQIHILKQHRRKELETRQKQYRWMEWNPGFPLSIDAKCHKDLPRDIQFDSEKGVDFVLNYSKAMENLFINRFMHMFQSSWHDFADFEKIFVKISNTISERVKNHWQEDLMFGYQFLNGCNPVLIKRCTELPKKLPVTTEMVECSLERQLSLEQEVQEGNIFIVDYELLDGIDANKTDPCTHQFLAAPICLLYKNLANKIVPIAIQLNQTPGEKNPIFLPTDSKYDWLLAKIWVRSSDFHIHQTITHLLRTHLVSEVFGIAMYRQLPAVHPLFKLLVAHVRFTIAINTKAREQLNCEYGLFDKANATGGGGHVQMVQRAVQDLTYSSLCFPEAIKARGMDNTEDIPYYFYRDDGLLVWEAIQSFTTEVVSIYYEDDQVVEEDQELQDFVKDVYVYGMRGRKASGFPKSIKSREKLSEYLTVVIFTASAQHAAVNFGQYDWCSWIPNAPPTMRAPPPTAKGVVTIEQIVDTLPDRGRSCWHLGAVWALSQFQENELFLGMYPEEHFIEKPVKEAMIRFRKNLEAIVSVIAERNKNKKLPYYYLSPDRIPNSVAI
Kind of series: 5-LO inhibition by radioimmunoassay (RIA) in rat peritoneal PMNL. Conditions: inhibitors at 'AM final concentration' [sic], mean ± SD.

For series [1], the system named is arachidonic acid-induced ear inflammation in mice. Kind of series: Arachidonic acid-induced ear inflammation in mice (AAE test). Format: in vivo. Conditions: Mus musculus, mice, topical, read-out: % inhibition of AA-induced ear inflammation.
Another series concerns the target T3, COX-2 (Homo sapiens, UniProt P35354).
T3 sequence (P35354 18-604): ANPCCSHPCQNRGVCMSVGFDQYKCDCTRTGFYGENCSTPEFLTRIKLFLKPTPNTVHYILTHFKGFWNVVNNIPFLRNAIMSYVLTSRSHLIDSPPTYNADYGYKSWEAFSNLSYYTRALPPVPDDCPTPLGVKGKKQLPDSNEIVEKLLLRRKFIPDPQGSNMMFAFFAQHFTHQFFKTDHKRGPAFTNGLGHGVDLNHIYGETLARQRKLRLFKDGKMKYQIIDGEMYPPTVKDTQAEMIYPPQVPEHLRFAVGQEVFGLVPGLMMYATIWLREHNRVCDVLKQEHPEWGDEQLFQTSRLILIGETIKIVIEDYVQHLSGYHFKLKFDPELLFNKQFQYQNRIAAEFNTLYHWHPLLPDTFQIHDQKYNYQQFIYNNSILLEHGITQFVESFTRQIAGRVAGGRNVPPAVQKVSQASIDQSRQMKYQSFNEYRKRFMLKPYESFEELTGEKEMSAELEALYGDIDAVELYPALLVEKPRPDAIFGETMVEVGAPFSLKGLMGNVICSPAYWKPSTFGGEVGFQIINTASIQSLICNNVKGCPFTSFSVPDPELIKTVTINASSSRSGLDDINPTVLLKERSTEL
Kind of series: In vitro inhibition of COX-2 activity. Conditions: read-out: COX-2 percent inhibition.

Sequence of COX-1 (P23219 24-599): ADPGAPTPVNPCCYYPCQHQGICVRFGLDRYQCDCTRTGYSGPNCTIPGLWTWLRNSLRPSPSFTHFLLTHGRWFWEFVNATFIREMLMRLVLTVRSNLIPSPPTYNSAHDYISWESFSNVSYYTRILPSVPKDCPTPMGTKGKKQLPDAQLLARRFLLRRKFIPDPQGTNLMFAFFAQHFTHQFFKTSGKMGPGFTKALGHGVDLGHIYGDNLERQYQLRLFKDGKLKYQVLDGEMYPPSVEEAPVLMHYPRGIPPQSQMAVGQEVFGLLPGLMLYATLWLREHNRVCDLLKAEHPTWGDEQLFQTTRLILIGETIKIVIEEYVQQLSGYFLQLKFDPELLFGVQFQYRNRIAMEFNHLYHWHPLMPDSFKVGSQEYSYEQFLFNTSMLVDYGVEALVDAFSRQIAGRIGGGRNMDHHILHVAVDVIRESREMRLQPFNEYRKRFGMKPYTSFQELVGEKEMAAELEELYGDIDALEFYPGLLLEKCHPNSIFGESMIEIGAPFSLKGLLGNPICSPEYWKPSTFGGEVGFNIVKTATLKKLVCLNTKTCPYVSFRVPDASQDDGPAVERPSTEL
From the text for COX-1: (§1) Percent inhibition mean values ±SD from at least three individual determinations are shown.
From the text for COX-2: as §1

For orientation: melting point means the temperature, or range, at which the solid turns liquid. Broadly, the inhibition is the relative decrease from the control value, in per cent. `CC1=C(C)C(=O)C(Nc2nc(C)cc(C)n2)=CC1=O` [Compound 4s, 2,3-Dirnethyl-5-(4,6-dimethylpyfimidin-2-ylamino)-[1,4]benzoquinone] came in with a melting point of 188 to 189 °C. For the same compound, the inhibition at 1 µM at 5-lipoxygenase (5-LO) (at 1 μM, rabbit peritoneal neutrophils (PMNL), mean ± s.d. of three experiments in duplicate, read-out: % Inhibition (percent inhibition of LTB4 formation)) was determined as 96 ± 1.7%. Also, the IC50 on 5-lipoxygenase (5-LO) (measured on PMNL, read-out: IC50 (concentration causing 50% inhibition of LTB4 formation), in parentheses (converted)) was 175 nM. Moreover, the “in vitro 5-LO activity in words” value at 5-lipoxygenase (5-LO) (peritoneal PMNL) is listed as “potent in vitro 5-LO inhibitors”. For the same compound, at COX-1, the inhibition at 500 µM worked out at 8.4 ± 11.6%. Besides, the 5-LO percent inhibition on 5-LO turned out to be 89.6 ± 2.3%. Further, the change in vivo at 50 µg/ear in series [1] (50 μg/ear) is -17.3 ± 1.1%. In series [1] (100 μg/ear), the change in vivo at 100 µg/ear was -33.9 ± 3.9%. In addition, at COX-2, the inhibition at 500 µM worked out at 3.3 ± 12.9%.
